T1: Ncad-Fc protein (chicken N-cadherin ectodomain fused to the Fc fragment of mouse IgG2b) (Gallus gallus, UniProt P10288)
T1 construct: chicken N-cadherin ectodomain fused to the Fc fragment of mouse IgG2b
T1 sequence (P10288 165-729 limits assumed): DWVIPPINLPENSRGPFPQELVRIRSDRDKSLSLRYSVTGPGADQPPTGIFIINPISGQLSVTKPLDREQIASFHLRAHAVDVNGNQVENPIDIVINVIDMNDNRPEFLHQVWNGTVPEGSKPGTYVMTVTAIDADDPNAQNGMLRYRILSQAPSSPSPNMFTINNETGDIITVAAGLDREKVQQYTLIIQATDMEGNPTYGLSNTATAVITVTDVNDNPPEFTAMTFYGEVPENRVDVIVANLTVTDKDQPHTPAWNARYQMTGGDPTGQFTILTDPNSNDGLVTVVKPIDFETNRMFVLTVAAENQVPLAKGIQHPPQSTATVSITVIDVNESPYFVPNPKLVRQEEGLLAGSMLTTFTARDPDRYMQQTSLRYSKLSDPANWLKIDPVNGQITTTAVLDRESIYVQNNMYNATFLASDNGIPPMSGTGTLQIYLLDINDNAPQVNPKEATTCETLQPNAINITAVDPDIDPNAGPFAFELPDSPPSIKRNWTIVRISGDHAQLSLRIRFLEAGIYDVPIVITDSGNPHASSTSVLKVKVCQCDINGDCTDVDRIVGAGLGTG

B1: Ncad-Fc protein (chicken N-cadherin ectodomain fused to the Fc fragment of mouse IgG2b) (Fc fusion, UniProt P10288 165-729, looked up)
chain: DWVIPPINLPENSRGPFPQELVRIRSDRDKSLSLRYSVTGPGADQPPTGIFIINPISGQLSVTKPLDREQIASFHLRAHAVDVNGNQVENPIDIVINVIDMNDNRPEFLHQVWNGTVPEGSKPGTYVMTVTAIDADDPNAQNGMLRYRILSQAPSSPSPNMFTINNETGDIITVAAGLDREKVQQYTLIIQATDMEGNPTYGLSNTATAVITVTDVNDNPPEFTAMTFYGEVPENRVDVIVANLTVTDKDQPHTPAWNARYQMTGGDPTGQFTILTDPNSNDGLVTVVKPIDFETNRMFVLTVAAENQVPLAKGIQHPPQSTATVSITVIDVNESPYFVPNPKLVRQEEGLLAGSMLTTFTARDPDRYMQQTSLRYSKLSDPANWLKIDPVNGQITTTAVLDRESIYVQNNMYNATFLASDNGIPPMSGTGTLQIYLLDINDNAPQVNPKEATTCETLQPNAINITAVDPDIDPNAGPFAFELPDSPPSIKRNWTIVRISGDHAQLSLRIRFLEAGIYDVPIVITDSGNPHASSTSVLKVKVCQCDINGDCTDVDRIVGAGLGTG
notes: extracellular domain; Captured on magnetic Dynabeads Protein A for the bead-bead aggregation assay; also called N-cadherin coated Dynabeads; not shown: Fc fragment of mouse IgG2b

Assays:
[1] = target: T1, Ncad-Fc protein (chicken N-cadherin ectodomain fused to the Fc fragment of mouse IgG2b); experiment: Ncad-Fc bead-bead aggregation assay; type: biochemical; settings: N-cadherin coated Dynabeads, 30 minutes to 1 hour at 37° C.
Method: Compounds of the invention were assayed according to the following procedures.
(§1) 10 μl of magnetic Dynabeads® Protein A (Prod. No. 100.01) were pipetted into a 1.5 ml eppendorf tube and washed with 0.5 ml of PBS (1×), 0.1% Tween 20, and 2 mM EGTA using the Dynal MPC-S Magnetic Particle Concentrator. Supernatant was aspirated, the magnet was removed and beads were washed once more with same buffer using the Dynal MPC-S Magnetic Particle Concentrator. Following this supernatant was once again removed and the beads were resuspended in 10 μl of PBS (1×), 0.1% Tween 20, and 2 mM EGTA buffer.
(§2) An equal 10 ul volume of Ncad-Fc protein (0.25 mg/10 μl, chicken N-cadherin ectodomain fused to the Fc fragment of mouse IgG2b) or human Fc (Jackson Immunoresearch, concentration 2.3 mg/ml) suspended in PBS (1×), 0.1% Tween 20, 2 mM EGTA and 1% BSA (Sigma, Prod. No. A0281) was added and incubated for 1-2 hours at room temperature on the Vortex Genie 2, followed by three washes in 0.5 ml of the same buffer. The beads were then resuspended in 80 μl PBS (1×) plus 1% BSA (dilution 1/8) and kept on ice.
The aggregation assay was performed in duplicates in 12 well/6 mm slides (CEL-LINE/ERIE SCIENTIFIC CO. Prod. No. 10-103). Experimentation was conducted in eppendorf tubes containing […] of DMEM medium ([…] glucose, Gibco Prod. No. 21 885-025)+10% Fetal Calf Serum (FCS) containing an N-cadherin inhibitor or calcium chelator (EDTA, EGTA) with the addition of 4 μl of N-cadherin coated Dynabeads®. The resulting bead solutions were gently mixed on ice followed by 50 μl of solution deposited per well.
Slides were incubated for 30 minutes to 1 hour at 37° C. and 5% CO2. After incubation two images per well were recorded on an inverted microscope (Nikon Diaphot) at 20× magnification, with an 8 Volt illumination using a Nikon D100. Images were analyzed using the Bead Counting software program from Metamorph (Meta Imaging Series 6.2r6).
In this assay, in the absence of inhibitor, the beads bind to each other and aggregate due to dimerization of the N-cadherin molecules on the surfaces of the beads. Accordingly, compounds effective for disrupting N-cadherin-mediated cell adhesion can be identified on the basis of whether they disrupt bead-bead aggregation in this assay.

[2] = system: retinal explants on substrate protein (Human N-cadherin-Fc or Laminin); experiment: Culture of retinal explants and quantification of neurite outgrowth; type: cell-based, White Leghorn chick; settings: embryonic day 8 chick retina explants, examined approximately 20 hours after plating
Excerpt: Tissue culture dishes were coated with nitrocellulose and allowed to dry (Lagenaur and Lemmon, [citation?] 1987). Substrate protein (Human N-cadherin-Fc or Laminin) was spread across the central region of each dish. Retinal explant cultures were made according to a previously described procedure (Halfter, W. et al., Dev. Biol., 95:56-64, 1983; Drazba, J. and Lemmon, V., Dev. Biol., 138:82-93, 1990). In brief, embryonic day 8 (stage 32-34 according to Hamburger and Hamilton, [citation?] 1951) White Leghorn chick eyes were dissected and the retina was flattened with the photoreceptor side down onto black nitrocellulose filters that had previously been incubated in concanavalin A. The filter was then cut into strips perpendicular to the optic fissure. Strips were inverted onto substrate-coated culture dishes so that the gang lion cell layer was directly adjacent to the substratum. N-cadherin small molecule antagonists were diluted in the culture medium and added at the time of plating. Neurite outgrowth was examined at approximately 20 hours after plating.
Neurite outgrowth from retina explants was catalogued using a SPOT RT digital camera and image acquisition software. The length of the five longest neurites per explant were measured (Burden-Gulley, S. M. and Brady-Kalnay, S. M. J. Cell Biol., 144:1323-1336, 1999). To measure neurite density, the region of neurite outgrowth was outlined to define the region of interest and the neurites were highlighted using Metamorph software. Data from similar experimental conditions were combined, analyzed by Student's t test and plotted.

[3] = target: the molecule itself; experiment: bead-bead aggregation assay, Ncad-Fc on Protein A Dynabeads, microscopy and bead counting
Method: as §1, §2
The aggregation assay was performed in duplicates in 12 well/6 mm slides (CEL-LINE/ERIE SCIENTIFIC CO. Prod. No. 10-103). […]

Molecule	active in Ncad-Fc bead-bead aggregation assay (disrupt bead-bead aggregation) [1]	inhibit neurite outgrowth [2]	binding result [3]
CCc1nnc(-c2ccc(C(C)(C)C)cc2)[nH]1 [compound 1-1, 3-(4-Tert-Butylphenyl)-5-Ethyl-4H-[1,2,4]Triazole]	active	inhibit neurite outgrowth	
Cc1cccc(-c2nnc(C)[nH]2)c1 [compound 5-1, 3-Methyl-5-M-Tolyl-4H-[1,2,4]Triazole]	active		
Cc1nnc(-c2ccccc2Cl)[nH]1 [compound 7-1, 3-(2-Chlorophenyl)-5-Methyl-4H-[1,2,4]Triazole]	active		
Cc1nnc(-c2cccc(Cl)c2)[nH]1 [compound 8-1, 3-(3-Chlorophenyl)-5-Methyl-4H-[1,2,4]Triazole]	active		
Cc1nnc(-c2ccc(Cl)cc2)[nH]1 [compound 9-1, 3-(4-Chlorophenyl)-5-Methyl-4H-[1,2,4]Triazole]	active		
Cc1nnc(Cc2ccccc2)[nH]1 [compound 10-1, 3-Benzyl-5-Methyl-4H-[1,2,4]Triazole]	active		
COc1cccc(-c2nnc(C)[nH]2)c1 [compound 11-1, 3-(3-Methoxyphenyl)-5-Methyl-4H-[1,2,4]Triazole]	active		
COc1ccc(-c2nnc(C)[nH]2)cc1 [compound 12-1, 3-(4-Methoxyphenyl)-5-Methyl-4H-[1,2,4]Triazole]	active		
Cc1nnc(-c2ccc(Cl)c(Cl)c2)[nH]1 [compound 14-1, 3-(3,4-Dichlorophenyl)-5-Methyl-4H-[1,2,4]Triazole]	active		
CC(C)c1nnc(-c2ccc(C(C)(C)C)cc2)[nH]1 [compound 21-1, 3-(4-Tert-Butylphenyl)-5-Isopropyl-4H-[1,2,4]Triazole]		inhibit neurite outgrowth	
CC(C)(C)c1ccc(-c2nnc(C3CC3)[nH]2)cc1 [compound 22-1, 3-(4-Tert-Butylphenyl)-5-Cyclopropyl-4H-[1,2,4]Triazole]		inhibit neurite outgrowth	
CC(C)(C)c1ccc(-c2nnc(C3CCC3)[nH]2)cc1 [compound 25-1, 3-(4-Tert-Butylphenyl)-5-Cyclobutyl-4H-[1,2,4]Triazole]		inhibit neurite outgrowth	
CC(C)(C)c1ccc(-c2nnc(Cc3ccccc3)[nH]2)cc1 [compound 26-1, 3-Benzyl-5-(4-Tert-Butylphenyl)-4H-[1,2,4]Triazole]		inhibit neurite outgrowth	
CC(C)(C)c1ccc(-c2nnc(-c3cnccn3)[nH]2)cc1 [compound 28-1, 2-[5-(4-Tert-Butylphenyl)-4H-[1,2,4]Triazol-3-Yl]-Pyrazine]		inhibit neurite outgrowth	
Cn1nc(-c2ccc(C(C)(C)C)cc2)nc1S [compound 46-1, 5-(4-Tert-Butylphenyl)-2-Methyl-2H-[1,2,4]Triazole-3-Thiol]		inhibit neurite outgrowth	
CC(C)(C)c1ccc(-c2nnc(N)[nH]2)cc1 [compound 50-1, 5-(4-Tert-Butylphenyl)-4H-[1,2,4]Triazol-3-Ylamine]	active		
Cc1nnc(-c2ccc(C(C)(C)C)cc2)[nH]1 [compound 53-1, 3-(4-Tert-Butylphenyl)-5-Methyl-4H-[1,2,4]Triazole]	active	inhibit neurite outgrowth	
CC(C)(C)c1ccc(-c2nnc(C(F)F)[nH]2)cc1 [compound 57-1, 3-(4-Tert-Butylphenyl)-5-Difluoromethyl-4H-[1,2,4]Triazole]		inhibit neurite outgrowth	
Cc1cnc(-c2ccc(C(C)(C)C)cc2)[nH]1 [compound 64-1, 2-(4-Tert-Butylphenyl)-5-Methyl-1H-Imidazole]		inhibit neurite outgrowth	
Cc1nnc(-c2ccccn2)[nH]1 [compound 65-1, 2-(5-Methyl-4H-[1,2,4]Triazol-3-Yl)-Pyridine]	active		
Cc1nnc(-c2cccnc2)[nH]1 [compound 66-1, 3-(5-Methyl-4H-[1,2,4]Triazol-3-Yl)-Pyridine]	active		
Cc1nnc(-c2ccncc2)[nH]1 [compound 67-1, 4-(5-Methyl-4H-[1,2,4]Triazol-3-Yl)-Pyridine]	active		
Cc1nnc(-c2cccs2)[nH]1 [compound 68-1, 3-Methyl-5-Thiophen-2-Yl-4H-[1,2,4]Triazole]	active		
COc1ccc(-c2nnc(S)[nH]2)cc1 [compound 69-2]		inhibit neurite outgrowth	
Sc1nnc(-c2cccs2)[nH]1 [compound 69-4]		inhibit neurite outgrowth	
B1			binds

From US20120022083A1, “SMALL MOLECULE MODULATORS OF CELL ADHESION” (ADHEREX TECHNOLOGIES, INC., priority 2008, published 2012)
